The values that follow come from publication PMC9701171 (Journal of pharmaceutical and biomedical analysis, 2022).

Read-outs that look alike come from different tables or passages of the source.

The target in assay [1] is T1, HbA (Homo sapiens, UniProt P69905). As to the kind of experiment: Steady-state concentration-dependent HbA binding. The settings on record: for n (Hill coefficient): SS concentration-dependency; for fold enhancement of binding affinity (improvement of KD) relative to 5-HMF: compared to 5-HMF.
T1 sequence (P69905 2-142 limits assumed): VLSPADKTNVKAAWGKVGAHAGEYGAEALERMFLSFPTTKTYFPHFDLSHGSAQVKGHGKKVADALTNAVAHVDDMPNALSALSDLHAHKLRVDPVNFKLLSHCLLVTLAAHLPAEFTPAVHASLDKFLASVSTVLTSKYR
T1 sequence (P68871 2-147 partner limits assumed): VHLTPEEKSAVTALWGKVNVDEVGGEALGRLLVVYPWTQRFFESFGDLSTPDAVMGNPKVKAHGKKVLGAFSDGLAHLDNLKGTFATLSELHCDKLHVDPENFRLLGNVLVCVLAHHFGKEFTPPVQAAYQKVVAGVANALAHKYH
Assay [2] deals with T1, HbA. As to the kind of experiment: Time-dependent HbA binding kinetics. The settings on record: for time to equilibration with HbA: low [AEH]0, assuming first-order conditions; for time to achieve steady state (SS): 0.2 mM HbA, pilot observations.
Assay [3] has as its target T1, HbA. The settings on record: cited from earlier work.
Another assay has as its system HbS. The settings on record: cited from earlier work.
The mark [4] stands for this setting: Reference Method, sigmoidal Bmax model, PE (COV).

For orientation: koff means the rate constant with which the complex falls apart. Consider `O=Cc1ccc(C=O)o1` [2,5-DMF, 2,5-Furandicarboxaldehyde], for which the Kd at HbA [1] worked out at 190 µM; at HbA [2], 120 µM. Also, the “n (Hill coefficient)” value on HbA [1] (sigmoidal Bmax model, PE (COV)) is on record as 1.7(21%). Besides, the “fold enhancement of binding affinity (improvement of KD) relative to 5-HMF” value on HbA [1] amounted to 2 fold. The koff at HbA [2] (read-out: koff (first-order dissociation rate constant)) is 1.81e-05 s⁻¹.
On to `O=Cc1ccc(CO)o1` [5-HMF, 5-Hydroxymethyl-2-furfural], for which the “n (Hill coefficient)” value on HbA [1] (sigmoidal Bmax model, PE (COV)) is 1.1 (10%). Moreover, the Bmax on HbA [1] (Universal Method, sigmoidal Bmax model, PE (COV)) was 0.20 (6%). Besides, at HbA [2], the “time to equilibration with HbA” value is 12 to 20 h. The “time to approach equilibrium” value on HbA [3] (5-HMF in the presence of HbA) was 24 to 30 h. Further, on HbA [3] (setting [4]), the Bmax is 0.092 (10%), the “Bmax / HbA0” value is on record as 0.74 (10%) and the Kd was 280 µM. On HbA [3] (read-out: binding affinity, 5-HMF in the presence of HbA), the Kd was 250 µM.
`CC(C)n1nccc1-c1ncccc1COc1cccc(O)c1C=O` [GBT-440] displayed a Kd at HbA [1] of 110 µM. The “n (Hill coefficient)” value on HbA [1] (sigmoidal Bmax model, PE (COV)) is listed as 1.6 (16%). The “HbA modified to the HbA-AEH adduct at saturation” value at HbA [1] (steady state, HbA solution) is listed as “about 50%”. On HbA [2], the “time to achieve steady state (SS)” value was ≤ 120 s.
As to `COc1ccc(OCc2ccccn2)c(C=O)c1` [INN-310], the “HbS-AEH adduct (Hb modification)” value with HbS is given as 100%. Moreover, the “n (Hill coefficient)” value on HbA [1] (sigmoidal Bmax model, PE (COV)) is reported as 2.4 (20%).
As to `O=Cc1c(O)cccc1OCc1cccc(CO)n1` [VZHE-039], the “HbS-AEH adduct (Hb modification)” value in the assay with HbS is 100%. Further, the “n (Hill coefficient)” value at HbA [1] (sigmoidal Bmax model, PE (COV)) is given as 1.9 (34%). Moreover, the “fold enhancement of binding affinity (improvement of KD) relative to 5-HMF” value on HbA [1] is given as “less than 5 fold”. Moreover, at HbA [2], the “time to achieve steady state (SS)” value was < 360 s and the “time to equilibration with HbA” value is recorded as “less than half an hour”. Besides, the “fold shorter t1/2^eq relative to 5-HMF” value on HbA [2] (current experimental conditions) is given as “more than 50 fold”.
For `COc1cc(C=O)ccc1O` [Vanillin, 4-Hydroxy-5-methoxybenzaldehyde], the Kd was 1700 µM on HbA [1] and 4300 µM at HbA [2]. Further, at HbA [1] (5.8 mM, initial pilot study), the HbA modification was < 100%.
